Laboratory results taken from article PMC6776382.

Assay: Two-component Cys-Cys stapling by Pd-catalysed Tsuji-Trost S-allylation with bis(allylic carbonate) Ri ((Z)-but-2-ene-1,4-diyl) or Rj (2-methylenepropane-1,3-diyl), 1.2 eq; 2.4 eq Pd(dba)2, 2.4 eq BIPHEPHOS; bis-thioether formation
Settings: the molecule shown is the open-chain precursor, CH3CN/H2O 2:1, 1.0 mM, 40.0 °C, 3.0 h, scale: 1 = cyclic product formed with full conversion of the linear peptide

For “H-Ala-Gly-Cys-Lys-Asn-Phe-Phe-Trp-Lys-Thr-Phe-Thr-Ser-Cys-OH (Cys3/Cys14 free SH; one S carries CH2C(=CH2)CH2OCO2Me from Rj at closure; two monomer peaks plus approx. 10% 2+2 dimer)”, the ring closure, product found (41-membered ring) was 1.

“H-Ala-Gly-Cys-Lys-Asn-Phe-Phe-Trp-Lys-Thr-Phe-Thr-Ser-Cys-OH (Cys3/Cys14 free SH; one S carries CH2CH=CHCH2OCO2Me from Ri at closure; single product peak)” gave a ring closure, product found (42-membered ring) of 1.

Work on “H-Glu-Trp-Ala-Cys-Thr-Ala-Ala-Cys-Lys-Phe-Leu-Ala-Ala-His-Ala-OH (Cys4/Cys8 free SH; one S carries CH2C(=CH2)CH2OCO2Me from Rj at closure; single product peak)” yielded a ring closure, product found (20-membered ring) of 1.

Work on “H-Glu-Trp-Ala-Cys-Thr-Ala-Ala-Cys-Lys-Phe-Leu-Ala-Ala-His-Ala-OH (Cys4/Cys8 free SH; one S carries CH2CH=CHCH2OCO2Me from Ri at closure; two product peaks, presumably E/Z)” yielded a ring closure, product found (21-membered ring) of 1.

For “H-Glu-Trp-Ala-Cys-Thr-Ala-Cys-Ala-Lys-Phe-Leu-Ala-Ala-His-Ala-OH (Cys4/Cys7 free SH; one S carries CH2C(=CH2)CH2OCO2Me from Rj at closure; single product peak)”, the ring closure, product found (17-membered ring) was 1.

Work on “H-Glu-Trp-Ala-Cys-Thr-Ala-Cys-Ala-Lys-Phe-Leu-Ala-Ala-His-Ala-OH (Cys4/Cys7 free SH; one S carries CH2CH=CHCH2OCO2Me from Ri at closure; two product peaks, presumably E/Z)” yielded a ring closure, product found (18-membered ring) of 1.
